Results: paper PMC5896373 (Molecular Pharmacology, 2018)
Numbering of substitutions follows the chain as printed.

How the values were obtained:
P2X7R point mutant M105A = target: T1, P2X7R point mutant M105A (Homo sapiens, UniProt Q99572, I21V/M105A/M24R/N16P/N25R/Q22R/R20V/S23N/T19I/Y26L); experiment: Two-electrode voltage clamp of ATP-evoked currents in Xenopus oocytes; assay type: cell-based; conditions: EC90 ATP, mean ± S.E.M.
T1 construct: expressed in transfected cells; host or cells: Xenopus laevis oocytes (cRNA injection)
T1 sequence (Q99572 whole entry N16P/T19I/R20V/I21V/Q22R/S23N/M24R/N25R/Y26L/M105A): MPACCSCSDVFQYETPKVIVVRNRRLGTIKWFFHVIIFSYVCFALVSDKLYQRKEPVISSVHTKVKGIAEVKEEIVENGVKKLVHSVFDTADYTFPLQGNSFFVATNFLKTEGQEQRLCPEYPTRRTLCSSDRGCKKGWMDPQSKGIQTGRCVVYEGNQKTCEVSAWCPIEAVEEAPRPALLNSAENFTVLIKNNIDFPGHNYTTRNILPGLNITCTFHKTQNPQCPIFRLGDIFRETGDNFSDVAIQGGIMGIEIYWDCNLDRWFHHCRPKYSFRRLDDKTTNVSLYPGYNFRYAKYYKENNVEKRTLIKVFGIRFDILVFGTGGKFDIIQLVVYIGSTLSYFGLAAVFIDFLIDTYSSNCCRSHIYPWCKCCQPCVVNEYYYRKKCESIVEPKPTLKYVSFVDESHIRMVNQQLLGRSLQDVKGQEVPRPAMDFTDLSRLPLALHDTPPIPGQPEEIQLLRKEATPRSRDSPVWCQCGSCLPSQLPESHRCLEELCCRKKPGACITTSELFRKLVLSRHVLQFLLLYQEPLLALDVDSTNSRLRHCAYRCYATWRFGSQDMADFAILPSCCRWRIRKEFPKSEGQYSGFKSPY
Description: (§1) Injected oocytes were stored at 16°C in ND96 buffer [in millimolar concentrations, NaCl 96, KCl 2, CaCl2 1.8, MgCl2 1, sodium pyruvate 5, and HEPES 5 (pH 7.6) supplemented with 50 μg/ml gentamycin and 50 μg/ml tetracycline]. Three to seven days postinjection two-electrode voltage clamp recordings were made from oocytes bathed in divalent-free ND96 buffer (in millimolar concentrations, NaCl 96, KCl 2, sodium pyruvate 5, HEPES 5, and 0.1 flufenamic acid, pH 7.6). Oocytes were voltage clamped at a holding potential of −60 mV with a GeneClamp500B amplifier (Molecular Devices).
(§2) Inhibition by the antagonists was expressed as the percentage of the peak current amplitude of an EC90 concentration of ATP recorded before the application of antagonist (ATP gave reproducible responses to ATP in the absence of antagonist). Inhibition curves were fitted with the Hill equation (variable slope) using GraphPad Prism 6 (GraphPad Software, San Diego, CA). […] Individual concentration-response curves were generated for individual experiments, and statistical analysis was carried out on the data generated. […] Data are shown as mean ± S.E.M. In all cases n ≥ 3 for all data points.

P2X7R point mutant F103A = target: T2, P2X7R point mutant F103A (Homo sapiens, UniProt Q99572, F103A/I21V/M24R/N16P/N25R/Q22R/R20V/S23N/T19I/Y26L); experiment: cell-based
T2 construct: expressed in transfected cells; host or cells: Xenopus laevis oocytes (cRNA injection)
T2 sequence (Q99572 whole entry N16P/T19I/R20V/I21V/Q22R/S23N/M24R/N25R/Y26L/F103A): as the sequence (Q99572 whole entry N16P/T19I/R20V/I21V/Q22R/S23N/M24R/N25R/Y26L/M105A) above, with F103A, A105M counted along it
Description: as §1
Inhibition by the antagonists was expressed as the percentage of the peak current amplitude of an EC90 concentration of ATP recorded before the application of antagonist (ATP gave reproducible responses to ATP in the absence of antagonist). Inhibition curves were fitted with the Hill equation (variable slope) using GraphPad Prism 6 (GraphPad Software, San Diego, CA). […] Individual concentration-response curves were generated for individual experiments, and statistical analysis was carried out on the data generated. When shown in figures, the inhibition curves are fitted to the mean normalized data. […] Data are shown as mean ± S.E.M. In all cases n ≥ 3 for all data points.

[1] = target: T3, chimeric P2X7/1 receptor 81–88 (Homo sapiens, UniProt Q99572, F88W/H85P/I21V/K81P/K82G/M24R/N16P/N25R/Q22R/R20V/S23N/S86Q/T19I/V84G/Y26L); experiment: Two-electrode voltage clamp of ATP-evoked currents in Xenopus oocytes; assay type: cell-based
T3 construct: expressed in transfected cells; host or cells: Xenopus laevis oocytes (cRNA injection)
T3 sequence (Q99572 1-595 N16P/T19I/R20V/I21V/Q22R/S23N/M24R/N25R/Y26L/K81P/K82G/V84G/H85P/S86Q/F88W): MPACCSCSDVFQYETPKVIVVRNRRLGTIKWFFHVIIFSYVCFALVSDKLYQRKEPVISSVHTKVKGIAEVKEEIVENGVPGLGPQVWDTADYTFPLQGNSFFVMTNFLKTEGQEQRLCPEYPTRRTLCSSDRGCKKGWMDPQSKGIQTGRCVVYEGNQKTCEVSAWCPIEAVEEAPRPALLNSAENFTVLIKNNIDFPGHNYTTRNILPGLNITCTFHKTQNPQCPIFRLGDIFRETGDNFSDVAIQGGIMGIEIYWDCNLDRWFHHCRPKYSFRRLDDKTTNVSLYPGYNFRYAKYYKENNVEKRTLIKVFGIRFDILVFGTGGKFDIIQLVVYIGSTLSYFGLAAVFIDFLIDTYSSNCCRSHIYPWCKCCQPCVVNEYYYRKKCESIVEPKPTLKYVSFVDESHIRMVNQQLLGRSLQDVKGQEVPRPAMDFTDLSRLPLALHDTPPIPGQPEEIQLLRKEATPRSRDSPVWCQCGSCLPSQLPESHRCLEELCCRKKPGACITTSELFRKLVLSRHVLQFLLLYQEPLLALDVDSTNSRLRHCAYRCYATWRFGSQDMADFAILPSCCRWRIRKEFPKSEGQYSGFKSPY
Description: (§3) Additional point mutants were made using the QuikChange mutagenesis kit (Stratagene California, La Jolla, CA). The production of the correct mutations and absence of coding errors was determined by DNA sequencing (Automated ABI Sequencing Service, University of Leicester, UK). cRNA was generated for the mutants and 50 nl (50 ng) was injected into manually defoliculated stage V Xenopus laevis oocytes using an Inject+Matic microinjector (J.A. Gabay, Inject+Matic, Geneva, Switzerland). Injected oocytes were stored at 16°C in ND96 buffer [in millimolar concentrations, NaCl 96, KCl 2, CaCl2 1.8, MgCl2 1, sodium pyruvate 5, and HEPES 5 (pH 7.6) supplemented with 50 μg/ml gentamycin and 50 μg/ml tetracycline]. Three to seven days postinjection two-electrode voltage clamp recordings were made from oocytes bathed in divalent-free ND96 buffer (in millimolar concentrations, NaCl 96, KCl 2, sodium pyruvate 5, HEPES 5, and 0.1 flufenamic acid, pH 7.6). Oocytes were voltage clamped at a holding potential of −60 mV with a GeneClamp500B amplifier (Molecular Devices).
as §2

P2X7R point mutant T94V = target: T4, P2X7R point mutant T94V (Homo sapiens, UniProt Q99572, I21V/M24R/N16P/N25R/Q22R/R20V/S23N/T19I/T94V/Y26L); experiment: as above; assay type: cell-based; conditions: EC90 ATP, mean ± S.E.M.
T4 construct: expressed in transfected cells; host or cells: Xenopus laevis oocytes (cRNA injection)
T4 sequence (Q99572 whole entry N16P/T19I/R20V/I21V/Q22R/S23N/M24R/N25R/Y26L/T94V): as the sequence (Q99572 whole entry N16P/T19I/R20V/I21V/Q22R/S23N/M24R/N25R/Y26L/M105A) above, with T94V, A105M counted along it
Description: as §3
(§4) Inhibition by the antagonists was expressed as the percentage of the peak current amplitude of an EC90 concentration of ATP recorded before the application of antagonist (ATP gave reproducible responses to ATP in the absence of antagonist). […]

P2X7R point mutant Q116A = target: T5, P2X7R point mutant Q116A (Homo sapiens, UniProt Q99572, I21V/M24R/N16P/N25R/Q116A/Q22R/R20V/S23N/T19I/Y26L); experiment: as above; assay type: cell-based; conditions: EC90 ATP, mean ± S.E.M.
T5 construct: expressed in transfected cells; host or cells: Xenopus laevis oocytes (cRNA injection)
T5 sequence (Q99572 whole entry N16P/T19I/R20V/I21V/Q22R/S23N/M24R/N25R/Y26L/Q116A): as the sequence (Q99572 whole entry N16P/T19I/R20V/I21V/Q22R/S23N/M24R/N25R/Y26L/M105A) above, with A105M, Q116A counted along it
Description: as §1, §2

P2X7R point mutant F88W = target: T6, P2X7R point mutant F88W (Homo sapiens, UniProt Q99572, F88W/I21V/M24R/N16P/N25R/Q22R/R20V/S23N/T19I/Y26L); experiment: as above; assay type: cell-based; conditions: EC90 ATP, mean ± S.E.M.
T6 construct: expressed in transfected cells; host or cells: Xenopus laevis oocytes (cRNA injection)
T6 sequence (Q99572 whole entry N16P/T19I/R20V/I21V/Q22R/S23N/M24R/N25R/Y26L/F88W): as the sequence (Q99572 whole entry N16P/T19I/R20V/I21V/Q22R/S23N/M24R/N25R/Y26L/M105A) above, with F88W, A105M counted along it
Description: as §3, §4

P2X7R point mutant K306C = target: T7, P2X7R point mutant K306C (Homo sapiens, UniProt Q99572, I21V/K306C/M24R/N16P/N25R/Q22R/R20V/S23N/T19I/Y26L); experiment: as above; assay type: cell-based; conditions: EC90 ATP, mean ± S.E.M.
T7 construct: expressed in transfected cells; host or cells: Xenopus laevis oocytes (cRNA injection)
T7 sequence (Q99572 whole entry N16P/T19I/R20V/I21V/Q22R/S23N/M24R/N25R/Y26L/K306C): as the sequence (Q99572 whole entry N16P/T19I/R20V/I21V/Q22R/S23N/M24R/N25R/Y26L/M105A) above, with A105M, K306C counted along it
Description: as §1, §2

[2] = target: T8, chimeric P2X7/1 receptor 105–114 (Homo sapiens, UniProt Q99572, E112P/G113K/I21V/K110V/L109I/M24R/N16P/N25R/Q22R/R20V/S23N/T19I/Y26L); experiment: as above; assay type: cell-based
T8 construct: expressed in transfected cells; host or cells: Xenopus laevis oocytes (cRNA injection)
T8 sequence (Q99572 1-595 N16P/T19I/R20V/I21V/Q22R/S23N/M24R/N25R/Y26L/L109I/K110V/E112P/G113K): T3 sequence (Q99572 1-595 N16P/T19I/R20V/I21V/Q22R/S23N/M24R/N25R/Y26L/K81P/K82G/V84G/H85P/S86Q/F88W) with P81K, G82K, G84V, P85H, Q86S, W88F, L109I, K110V, E112P, G113K
Description: as §3, §2

P2X7-2Nβ 73–79 deletion = target: T9, P2X7-2Nβ 73–79 deletion (Homo sapiens, UniProt Q99572, DEL73-79/I21V/M24R/N16P/N25R/Q22R/R20V/S23N/T19I/Y26L); experiment: as above; assay type: cell-based
T9 construct: expressed in transfected cells; host or cells: Xenopus laevis oocytes (cRNA injection)
T9 sequence (Q99572 with tags, fused parts or gaps N16P/T19I/R20V/I21V/Q22R/S23N/M24R/N25R/Y26L/DEL73-79): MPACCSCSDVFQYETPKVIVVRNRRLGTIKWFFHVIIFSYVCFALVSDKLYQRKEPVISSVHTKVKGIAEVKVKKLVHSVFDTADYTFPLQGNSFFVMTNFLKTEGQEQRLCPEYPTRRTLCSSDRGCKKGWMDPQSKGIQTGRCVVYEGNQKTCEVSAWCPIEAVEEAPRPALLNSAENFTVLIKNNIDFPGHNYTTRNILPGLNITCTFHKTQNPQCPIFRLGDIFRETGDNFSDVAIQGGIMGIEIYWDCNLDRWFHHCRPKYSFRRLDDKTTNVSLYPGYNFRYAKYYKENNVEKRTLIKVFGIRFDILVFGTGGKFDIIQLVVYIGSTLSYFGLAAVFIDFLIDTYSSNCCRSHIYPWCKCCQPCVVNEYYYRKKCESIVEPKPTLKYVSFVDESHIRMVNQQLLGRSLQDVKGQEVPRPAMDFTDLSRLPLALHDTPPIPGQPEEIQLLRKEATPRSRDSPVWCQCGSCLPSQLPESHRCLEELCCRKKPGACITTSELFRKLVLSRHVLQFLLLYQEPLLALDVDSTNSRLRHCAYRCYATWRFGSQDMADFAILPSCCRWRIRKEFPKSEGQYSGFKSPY
Description: as §3, §2

[3] = target: T10, chimeric P2X7/1 receptor 112–118 (Homo sapiens, UniProt Q99572, E112P/E115T/G113K/I21V/L118Y/M24R/N16P/N25R/Q22R/R117G/R20V/S23N/T19I/Y26L); experiment: cell-based; assay type: cell-based
T10 construct: expressed in transfected cells; host or cells: Xenopus laevis oocytes (cRNA injection)
T10 sequence (Q99572 whole entry N16P/T19I/R20V/I21V/Q22R/S23N/M24R/N25R/Y26L/E112P/G113K/E115T/R117G/L118Y): as the sequence (Q99572 whole entry N16P/T19I/R20V/I21V/Q22R/S23N/M24R/N25R/Y26L/M105A) above, with A105M, E112P, G113K, E115T, R117G, L118Y counted along it
Description: as §3, §2

`Cl.Clc1cccc(-c2nnnn2Cc2cccnc2)c1Cl.O` [A438079, 3-(5-(2,3-dichlorophenyl)-1H-tetrazol-1-yl)methyl pyridine hydrochloride hydrate] was tested, and the IC50 (P2X7R point mutant M105A) was 1580 nM, the IC50 (P2X7R point mutant F103A) was > 100000 nM and the IC50 [1] was 1000 nM. The IC50 (P2X7R point mutant T94V) was > 100000 nM, the IC50 (P2X7R point mutant Q116A) was 1260 nM and the IC50 (P2X7R point mutant F88W) was 3160 nM. The IC50 (P2X7R point mutant K306C) was 1580 nM, the IC50 [2] was 501 nM and the IC50 (P2X7-2Nβ 73–79 deletion) was 200 nM. The IC50 [3] was 3160 nM.

`COc1ccc(CC(=O)NC(N=C(NC#N)Nc2cccc3ncccc23)C(C)(C)C)cc1OC` (centres unmarked) [A740003, N-[1-[[(cyanoamino)(5-quinolinylamino)methylene]amino]-2,2-dimethylpropyl]-3,4-dimethoxybenzeneacetamide] showed an IC50 (P2X7R point mutant M105A) of 12600 nM, an IC50 (P2X7R point mutant F103A) of 631 nM and an IC50 [1] of 79.4 nM. The “effect on antagonist potency relative to P2X7-2Nβ” value ([1]; chimera 81–88) was “no effect”, the IC50 (P2X7R point mutant T94V) was 398 nM and the IC50 (P2X7R point mutant Q116A) was 316 nM. It also gave an IC50 (P2X7R point mutant F88W) of 158 nM, an IC50 (P2X7R point mutant K306C) of 316 nM and an IC50 [2] of 100 nM. The “effect on antagonist potency relative to P2X7-2Nβ” value ([2]; chimera 105–114) was “no effect”, the IC50 (P2X7-2Nβ 73–79 deletion) was 79.4 nM and the “effect on antagonist sensitivity relative to P2X7-2Nβ” value (P2X7-2Nβ 73–79 deletion; 73–79 deletion) was “unaffected”. The IC50 [3] was 251 nM.
